Earlier results on one molecule are cited in patent publication US20230320987A1, “LIPID NANOPARTICLES AND LIPOSOMES” (National Health Research Institutes, priority 2022, published 2023).

The conditions of data set [1]: after subcutaneous injection into a human body.

In the case of `Cc1cc(NC2CCN(C(=O)CCNCC(=O)O)CC2)nc(NCc2nc(CCCNCCCNC3CCCCC3)co2)n1` [CX-1, (3-{4-[2-({4-[3-(3-cyclohexylaminopropylamino)propyl]oxazol-2-ylmethyl}amino)-6-methyl-pyrimidin-4-ylamino]piperidin-1-yl}-3-oxopropylamino)acetic acid], the water solubility entry is listed as “high”. Besides, in data set [1], the half-life entry was “less than one”.
